Source: ChEMBL document CHEMBL1132001, “Generation of an Ugi library of phosphate mimic-containing compounds and identification of novel dual specific phosphatase inhibitors” (Bioorg Med Chem Lett, 1999)

Tests used:
Homo sapiens = organism: Homo sapiens; assay: Inhibition of dual specificity Cell division cycle 25
[1] = Compound was evaluated for its activity against PTP1B (a tyrosine phosphatase)
[2] = target: Dual specificity protein phosphatase 3 (Homo sapiens) (UniProt P51452); assay: Compound was evaluated for its activity against VHR
Dual specificity protein phosphatase 3 (Homo sapiens), sequence (P51452 whole entry, looked up): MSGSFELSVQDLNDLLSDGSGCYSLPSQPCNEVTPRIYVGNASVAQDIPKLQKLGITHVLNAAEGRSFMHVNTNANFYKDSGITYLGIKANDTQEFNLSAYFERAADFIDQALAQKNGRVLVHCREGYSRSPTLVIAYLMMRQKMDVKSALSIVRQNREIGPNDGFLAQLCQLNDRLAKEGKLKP

SMILES	Activity (Homo sapiens) [µM]	Activity [1] [µM]	Activity [2] [µM]
CC(C)=CCCC(C)C(C(=O)NC1CCCCC1)N(CCc1c[nH]c2ccccc12)C(=O)c1ccc(C(F)(F)P(=O)(O)O)cc1 (centres undefined)	27	–	–
CC(C)=CCCC(C)C(C(=O)NC1CCCCC1)N(CCc1c[nH]c2ccccc12)C(=O)c1ccc(CP(=O)(O)O)cc1 (centres undefined)	23	61	17
CC(C)/C=C\CC(C)C(C(=O)NCC(=O)O)N(CCc1c[nH]c2ccccc12)C(=O)c1cc(Br)cc(Br)c1O (centres undefined)	15	–	–
Cc1ccc(S(=O)(=O)CNC(=O)C(c2ccc(OCP(=O)(O)O)cc2)N(CCc2c[nH]c3ccccc23)C(=O)c2cc(Br)cc(Br)c2O)cc1 (centres undefined)	10	95	> 120
O=C(NC(Cc1ccc(O)cc1)C(=O)N(CCc1c[nH]c2ccccc12)C(C(=O)NCCN1CCOCC1)c1ccc(OCP(=O)(O)O)cc1)OCC1c2ccccc2-c2ccccc21 (centres undefined)	8	16	6.1

Next, values leading:

Activity (Homo sapiens) [µM]	Activity [1] [µM]	Activity [2] [µM]	SMILES
23	73	19	CC(C)=CCCC(C)C(C(=O)NC1CCCCC1)N(Cc1ccc2c(c1)OCO2)C(=O)c1ccc(CP(=O)(O)O)cc1 (centres undefined)
3	107	11	O=C(O)C(Oc1ccc(C(C(=O)NC2CCCCC2)N(Cc2ccc3c(c2)OCO3)C(=O)c2ccc(CP(=O)(O)O)cc2)cc1)C(=O)O (centres undefined)
35	> 96	> 9	O=C(O)CNC(=O)C(c1nccs1)N(Cc1ccc2c(c1)OCO2)C(=O)c1ccc(CP(=O)(O)O)cc1 (centres undefined)
16	> 160	87	O=C(NC1CCCCC1)C(c1ccnc2ccccc12)N(CCc1c[nH]c2ccccc12)C(=O)c1ccc(CP(=O)(O)O)cc1 (centres undefined)
3	89	9	O=C(O)C(Oc1ccc(C(=O)N(Cc2ccc3c(c2)OCO3)C(C(=O)NC2CCCCC2)c2ccc(OC(C(=O)O)C(=O)O)cc2)cc1)C(=O)O (centres undefined)
0.7	82	5	O=C(O)C(Oc1ccc(C(=O)N(Cc2ccc3c(c2)OCO3)C(C(=O)NC2CCCCC2)c2ccc(OCP(=O)(O)O)cc2)cc1)C(=O)O (centres undefined)
